Measurements reported in US9469878B2, “Methods of treating cancer comprising targeting NQO1” (The Board of Regents of the University of Texas System, priority 2010, dated 2016).

Legend:
[1] = tested on: MDA-MB-231 cells expressing NQO1 (231+); experiment: Long term survival assay; type: cell-based, human; details: 231-NQ+ cells
Procedure: Cells were cultured and treated as described above.
Data were expressed as relative survival (treated/control×100%).

[2] = tested on: HMEC 1585 normal human mammary epithelial cells
Procedure: Cells were cultured and treated as described above. […] Experiments were repeated at least three times, and data expressed as relative survival (treated/control×100%) means±SEM. […] The multi-target model was used to describe the shape of relative survival curves. In this model, a final slope (D0) resulting from multiple-event killing and quasithreshold (Dq) doses were used to represent the size or width of the shoulder of the curve. The extrapolation number (n) is also a measure of the width of the shoulder. The three parameters, n, Do, and Dq were related by the expression: loge n=Dq/Do.
Cells were treated with β-lap with or without dicoumarol for 2 h. […] Data were expressed as relative survival (treated/control×100%). Experiments were repeated at least three times, and data expressed as relative survival means±SEM. […] Human mammary epithelial cells were plated in 48 well dishes in growth media containing a 50:50 mixture of MGEM/DME:F12 medium supplemented with insulin, human epidermal growth factor and hydrocortisone.

[3] = tested on: A549 cells; experiment: LD50 responses of NSCLC cell lines treated with β-Lap; type: cell-based, human; details: NQO1 enzyme activities ≧50 units, β-Lap 2 h, 7 days later
Procedure: (§1) LD50 responses were plotted as a function of NQO1 enzymatic levels. The notations, *1/*1 and *2/*2 represent the NQO1 status of each cell line as homozygous wild type (*1/*1) or homozygous polymorphic (*2/*2) genotypes. […] In (b), Kaplan-Meier survival curve of mice bearing orthotopic lung tumors implanted with *1/*1 A549 cells. Mice were treated intravenously (5 doses every other day) with β-lap-HPβ-CD or vehicle alone (HPβ-CD).

[4] = tested on: H441 cells; experiment: as above; type: cell-based, human; details: NQO1 enzyme activities ≧50 units, β-Lap 2 h, 7 days later
Procedure: as §1

[5] = tested on: wild-type *1/*1 non-small cell lung cancer (NSCLC) cell lines; experiment: as above; type: cell-based, human; details: all of the wild-type *1/*1 NSCLC cells, 2 h treatment, 7 days later
Procedure: FIG. 16 depicts NQO1 levels predict response to NQO1 bioactivatable therapies. In (a) LD50 responses of non-small cell lung cancer (NSCLC) cell lines treated with β-Lap for 2 h and harvester 7 days later. LD50 responses were plotted as a function of NQO1 enzymatic levels. The notations, *1/*1 and *2/*2 represent the NQO1 status of each cell line as homozygous wild type (*1/*1) or homozygous polymorphic (*2/*2) genotypes. Note that all heterozygote cells containing one wild-type allele (*1) are wild-type, phenotypically, for NQO1 expression, such that only homozygous *2/*2 or 3/3 are considered non-responsive to NQO1 bioactivatable drugs. Note the high resistance of H596 and H2862 cell lines to β-lapachone compared to all of the wild-type *1/*1 cells with LD50 values less than 5 μM. Note also that *3/*3 SNPs in NQO1 are far more rare than *2/*2 single point mutations in NQO1. In (b), Kaplan-Meier survival curve of mice bearing orthotopic lung tumors implanted with *1/*1 A549 cells. Mice were treated intravenously (5 doses every other day) with β-lap-HPβ-CD or vehicle alone (HPβ-CD). Similar studies with *2/*2 or *3/*3 tumors were performed and these tumors were non-responsive to β-lapachone or other NQO1 bioactivatable drug therapies.

[6] = tested on: PC-3 cells; experiment: Alkaline comet assay; type: cell-based, human; details: PC-3 cells after exposure to 4 μM β-lap
Procedure: DNA lesions, including total base damage, DSBs and SSBs, versus DSBs were assessed using single-cell gel electrophoretic comet assays under alkaline or neutral conditions, respectively (TREVIGEN, Gaithersburg, Md.). Slides were stained with SYBR Green and visualized using a Nikon Eclipse TE2000-E fluorescence microscope (Melville, N.Y.). Digital photomicrographs were taken and comet tail lengths quantified using NIH Image J software. Each datum point represents an average of 100 cells±SE, and data are representative of experiments performed in triplicate.

[7] = molecular target: T1, NQO1 in 231-NQ+ cell extracts (Homo sapiens, UniProt P15559); experiment: Oxygen consumption in S9 cell extracts; type: biochemical; details: in 4 h, 231-NQ+ versus 231-NQ− cell extracts
T1 construct: expressed in transfected cells; host or cells: MDA-MB-231 (231-NQ+), S9 supernatant

[8] = tested on: PARP1 in 231-NQ+ cells; experiment: PAR formation (PARP1 hyperactivation), Western blot; type: cell-based, human; details: after 2 μM β-lap
[9] = β-Lap pharmacokinetic (PK) analyses; type: in vivo; details: athymic nude mice, plasma ng/mL, organs ng/g
Text: FIG. 27 depicts correlative studies of NQO1 expression and β-lap, a bioactivatable drug. (a) NQO1 activity assay (reported as nMoles cyt-c/min/μg protein) in paired tumor (T) and associated normal tissue (N) from human NSCLC patient samples. NQO1 activity was not detectable in normal lung tissue. (b) β-Lap pharmacokinetic (PK) analyses in athymic nude mice. Black circles denote plasma concentrations (ng/mL); other colors denote various organ/tumor concentrations (ng/g). […] (c) NQO1 expression by immunohistochemistry (IHC). Arrowhead denotes NQO1+ prostate cancer cells. Arrow denotes normal prostate gland tissue that have low, or no, detectable NQO1 protein levels.

[10] = tested on: NQO1-deficient LNCaP cells; experiment: Relative survival assay; type: cell-based, human
Procedure: Relative DNA cell survival assays were assessed after various treatments. […] Cells were then mock-treated or treated with various doses of β-lap (for 2 h) in the presence or absence of dicoumoral as indicated. Drug-free medium was then added and cells allowed to grow for 5-7 days until control cells reached ˜100% confluence. […] Results were reported as means±SE from at least three independent experiments.

[11] = molecular target: NQO1 (Homo sapiens, UniProt P15559); experiment: NADH recycling assay (NQO1 futile cycling); type: biochemical; parameters: S9 Supernatants were prepared from cells in mid-log to late log phase growth; endogenous in cells; host or cells: cancer cell lines, mostly from a non-small cell lung cancer panel (e.g. Calu-3); S9 supernatants; details: in 5 min, NQO1 futile cycle
Procedure: Assays were performed with either purified NQO1 or S9 extracts from MCF-7:WS8, or other cancer or normal cells. For the assay using purified NQO1, […] of recombinant human NQO1 was mixed with 200-500 μM NADH in 50 mM potassium phosphate buffer, pH 7.0.

T1 sequence (P15559 whole entry): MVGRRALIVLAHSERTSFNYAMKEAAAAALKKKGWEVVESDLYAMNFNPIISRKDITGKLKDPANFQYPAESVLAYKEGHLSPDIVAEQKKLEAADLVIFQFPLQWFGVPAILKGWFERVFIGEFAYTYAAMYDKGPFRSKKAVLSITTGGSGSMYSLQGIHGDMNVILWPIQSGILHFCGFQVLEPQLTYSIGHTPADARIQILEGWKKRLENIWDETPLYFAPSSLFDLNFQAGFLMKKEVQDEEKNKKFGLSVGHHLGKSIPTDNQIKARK
Chain of NQO1 (P15559 whole entry): as above

CC1(C)CCC2=C(O1)c1ccccc1C(=O)C2=O [β-Lap, 3,4-dihydro-2,2-dimethyl-2H-naphtho[1,2-b]pyran-5,6-dione]
Lethal dose ([1]; 2 h): > 2 µM | Sublethal dose ([1]; 2 h): 1 µM | LD70 dose ([1]; 2 h treatment): ~2 µM | LD50 β-Lap [2]: >10 | LD50 [3]: 2.5 µM | LD50 [4]: 1.5 µM | LD50 [5]: less than 5 μM | IR dose equivalent to DNA lesions by alkaline assays [6]: 20 Gy | Increase of O2 consumption [7]: ~40 fold | Time of peak PAR formation [8]: 30 min | Organ/tumor concentrations [9]: elevated levels of the drug in lung | Response to β-lap [10]: not responsive | NAD(P)H used per mole of β-lap [11]: > 60 mol
